Test results from PubChem BioAssay AID179 (DTP/NCI, 2004).
Activity calls are given as the source filed them.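 The calls were made as follows: active = compounds giving half or more protection of infected cells from virus-caused growth loss, again on retest; inactive = the rest.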 Where a SMILES comes first, the peptide text is derived from it. The star is where a group is joined. Cbz = O=C(OCc1ccccc1)*; OtBu = CC(C)(C)O*

Test system: CEM cells HIV-1 protection, formazan growth assay
Assay: NCI AIDS Antiviral Assay
Conditions: for IC50: measured here: growth of uninfected CEM cells
Procedure, shortened: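 CEM (human) cells, HIV-1 infected vs uninfected, 5-point dosing, formazan growth read-out. Retest threshold 50% protection.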

Row | Structure (SMILES) | outcome | EC50 [µM] | IC50 [µM]
1 | O=S1(=O)[C@H](c2ccccc2)c2c(-c3ccccc3)sc(-c3ccccc3)c2[C@@H]1c1ccccc1 | inactive |  | 
2 | COc1cc(/C=C2\CCC(C)C3=C2NC(=S)NC3c2cc(OC)c(OC)c(OC)c2)cc(OC)c1OC (stereo unspecified) |  | > 200 | 32.4
3 | O=C1N[C@H]2CCCC[C@@H]2C(=O)N1OS(=O)(=O)c1ccccc1 |  | > 200 | > 200
4 | CCOc1ccccc1/C=C1\NC(=O)NC1=O |  | > 200 | > 200
5 | Cc1ccc2cccc3c2c1CC1(C3=O)S(=O)(=O)OCCOS1(=O)=O |  | > 200 | > 200
6 | Oc1cc(O)c(C2c3ccc(O)cc3OC(c3ccc(O)c(O)c3)C2O)c(O)c1 (stereo unspecified) |  | > 46.8 | > 46.8
7 | Cc1ccc(C(=O)c2ccccc2C(=O)O)c(C)c1 |  | > 200 | > 200
8 | Cc1cc2nc3c(C(OC4OC(CO)C(O)C(O)C4O)C(O)CO)nn(-c4ccc(F)cc4)c3nc2cc1C (stereo unspecified) | inactive |  | 
9 | CCCCCCCCCCCCOCCCCCCCCC/C=C/c1ccc2c(c1)OCCOCCOCCOCCO2 |  | > 200 | 15.1
10 | CC(C)CN1CC(=O)N2CCCC(C)N2C(=O)C1 (stereo unspecified) |  | > 200 | > 200
11 | Cc1ccc(S(=O)(=O)N2C[C@](O)(c3ccccc3)[C@H]2C)cc1 |  | > 200 | 195
12 | CNC1(C(=O)O)CC1 |  | > 200 | > 200
13 | COc1ccc(Nc2cc[nH]c(=O)c2NC(C)=O)cc1 |  | > 479 | > 479
14 | O=C(OCCOCCO)c1ccccc1-c1c2cc(I)c(=O)c(I)c-2oc2c(I)c(O)c(I)cc12 |  | > 200 | 5.13
15 | C=C(c1ccccc1)N1N=NC2CCOC21 (stereo unspecified) |  | > 200 | > 200
16 | CC(=O)OCc1ccc(-c2nc(C#N)c(N)o2)o1 |  | > 200 | > 200
17 | O=[N+]([O-])c1ccc(N/N=C/CC(O)(C(F)(F)F)C(F)(F)F)c([N+](=O)[O-])c1 |  | > 200 | 7.08
18 | CC1=C(C(=O)Nc2ccc([N+](=O)[O-])cc2)C(c2ccccc2O)C(C(=O)Nc2ccc([N+](=O)[O-])cc2)=C(C)N1 |  | > 49 | 30.9
19 | N#Cc1nc(COCc2ccccc2)oc1N |  | > 200 | 95.5
20 | NC(=O)/C(=N\NC(=O)c1cc2ccccc2cc1O)C1C(=O)N(c2ccccc2)N=C1N (stereo unspecified) |  | > 219 | 13.8
21 | C/C(CC(=O)Nc1cc(Cl)c(Cl)cc1Cl)=N\NC(N)=O |  | > 21.4 | 2.75
22 | CCOC(=O)CO/N=C\C1=CC(=O)C2CC1C2(C)C (stereo unspecified) |  | > 200 | > 200

Row | Structure (SMILES) | outcome | EC50 [µM] | IC50 [µM]
23 | CC(=O)N(/N=C\c1ccc([N+](=O)[O-])cc1)c1ccccc1 |  | > 126 | > 126
24 | Cc1ccc(S(=O)(=O)SCc2ccccc2)cc1 |  | > 67.6 | 5.62
25 | O=C(O)Cc1ccc(Nc2nc3cc(C(F)(F)F)ccc3nc2C(=O)O)cc1 |  | > 200 | > 200
26 | COc1cc(C2c3cc4c(cc3OC(Nc3ccccc3)C2C)OCO4)cc(OC)c1O (stereo unspecified) | inactive |  | 
27 | ClC1c2ccccc2-c2nsnc2C1Cl (stereo unspecified) |  | > 28.2 | > 28.2
28 | O=C1NC(=S)N/C1=C\c1ccc(Cl)cc1 |  | > 200 | 105
29 | COc1ccc(OC)c2c3c(ccc12)C(C)(c1ccccc1)OC3=O (stereo unspecified) |  | > 191 | 89.1
30 | C[C@@]1(CI)OC(=O)N2CCC[C@H]21 |  | > 891 | > 891
31 | O=C1CCc2ccccc2O1 |  | > 1700 | 1410
32 | COc1cccc(-c2nc(N)c(C#N)c3c2CCS(=O)(=O)c2ccc(C)cc2-3)c1 |  | > 200 | 4.07
33 | C/C=C(/CCC1NCCC2c3ccccc3NC12)[Si](C)(C)C (stereo unspecified) | inactive |  | 
34 | CC1(C)CSCC(C)(C)C(=N/N)/C1=N\N |  | > 200 | > 200
35 | Cc1cc2c(=O)cc(-c3ccccc3Cl)oc2c(C(=O)O)c1C |  | > 200 | > 200
36 | N#C/C(=C\c1c(Cl)cccc1Cl)c1nc2ccccc2[nH]1 |  | > 200 | 24.5
37 | CC(CN=C(N)CSS(=O)(=O)O)OC12CC3CC(CC(C3)C1)C2 (stereo unspecified) |  | > 200 | 35.5
38 | CSc1cc(-c2ccc(Cl)cc2)s[s+]1 |  | 50.1 | 115
39 | CNc1nc(SC)n(C)c(=O)c1N=O | inactive |  | 
40 | CCC(O)(COC(N)=O)c1ccccc1 (stereo unspecified) |  | > 200 | > 200
41 | O=C([CH-]C(=O)c1ccccc1)c1ccccc1.O=C([CH-]C(=O)c1ccccc1)c1ccccc1.[CH2-]CCC.[CH2-]CCC.[Sn+4] |  | > 7.76 | 0.427
42 | O=C(O)Cn1c(=O)[nH]c(=O)c2c1ncn2Cc1ccccc1 |  | > 832 | > 832
43 | COC(=O)C(=O)C1CSC2=C(CS(=O)(=O)c3ccccc32)C1=O (stereo unspecified) |  | > 200 | > 200
44 | CC1=C(C(=O)CC(=O)C(=O)Nc2cccc(C)c2C)Sc2ccccc2N1 |  | > 331 | > 331

Row | Structure (SMILES) | outcome | EC50 [µM] | IC50 [µM]
45 | COc1cccc(C2C3=C(COC3=O)Oc3cc4c(cc32)OCO4)c1 (stereo unspecified) |  | > 2 | 0.0851
46 | O=P(N1CC1)(N1CC1)N1CC2CCC(CC2)C1 |  | > 200 | 1.62
47 | CC12CCC(C(Br)C1=O)C2(C)CS(=O)(=O)O (stereo unspecified) |  | > 200 | > 200
48 | CCOC1=NC(C(F)(F)F)(C(F)(F)F)N=C(/N=C(/N)N(C)C(C(C)C)P(=O)(OC(C)C)OC(C)C)O1 (stereo unspecified) |  | > 200 | 31.6
49 | Cc1ccc(N/N=c2\c3nc4ccccc4nc2n(-c2ccccc2C)c(=S)n3-c2ccc(C)cc2)cc1 | inactive |  | 
50 | Cc1cc(C)nc(NS(=O)(=O)c2ccc(NC(=O)c3cccc4c(NNc5ccc(S(=O)(=O)N=C(N)N)cc5)c5ccccc5nc34)cc2)n1 |  | > 100 | 50.1
51 | O=C1OCCN1N1C(=O)CC2(CCCCC2)C1=O |  | > 200 | > 200
52 | CC(=O)O[C@@H]1CC(C)C2CC2C2=C(C(O)OC2O)[C@@H]1C(C)CCC=C(C)C (stereo partly specified) |  | > 69.2 | 58.9
53 | COC(=O)c1c[nH]cc1CCc1c[nH]cc1C(=O)OC | inactive |  | 
54 | CN(C)CC(NC(NCS)C(=O)NCCNc1ccc(NCCNC(=O)C(NCS)NC(CN(C)C)OCCl)c2c1C(=O)c1c(O)ccc(O)c1C2=O)OCCl (stereo unspecified) |  | > 0.0501 | 0.0182
55 | NNC(=O)C(=O)N/N=C1\CCC(=O)CC1C(=O)CCC(=O)Nc1ccc(Cl)cc1 (stereo unspecified) |  | > 32.4 | > 32.4
56 | CCOc1ccc(NC(=O)C2=C(C)NC(C)=C(C(=O)Nc3ccc(OCC)cc3)C2c2ccc(O)c(OC)c2)cc1 |  | > 17 | > 17
57 | COc1ccc(/C(=N/O)c2ccccc2-c2nc3ccccc3c(=O)n2-c2ccc(S(=O)(=O)Nc3nccs3)cc2)cc1C |  | > 50.1 | > 50.1
58 | CN(NC(=O)/C(=C\c1ccco1)NC(=O)c1ccccc1)c1cn[nH]c(=O)c1Cl |  | > 200 | 38.9
59 | O=C1CSC(c2ccccc2[N+](=O)[O-])N1c1ccc(-c2ccc(-n3c(-c4ccccc4)nc4ccccc4c3=O)cc2)cc1 (stereo unspecified) |  | > 200 | 95.5
60 | O=C(CC(C(=O)c1cccs1)c1ccsc1)c1ccccc1 (stereo unspecified) |  | > 200 | 151
61 | CC[N+](C)(C)c1ccc(C(=C2C=CC(=[N+](C)C)C=C2)c2ccc(N(C)C)cc2)cc1 | inactive |  | 
62 | CC12CCC(C=C1N1CCCCC1)C(C)(C)O2 (stereo unspecified) |  | > 1070 | > 1070
63 | C[C@H](CCc1nc(C#N)c(N)o1)[C@H]1CC[C@H]2[C@@H]3CCC4C[C@@H](O)CC[C@]4(C)[C@H]3C[C@@H](O)[C@]12C (stereo partly specified) |  | > 20 | 1.95
64 | CCOC(=O)c1nc2ccc(C(F)(F)F)cc2nc1NCc1cc(OC)c(OC)c(OC)c1 |  | > 126 | > 126
65 | Cc1c(Cc2ccccc2)n(C(C)OCCN2C(=O)c3ccccc3C2=O)c(=O)[nH]c1=O (stereo unspecified) |  | > 200 | > 200
66 | C=CCOCn1ccc(N)nc1=O | inactive |  | 

Row | Structure (SMILES) | outcome | EC50 [µM] | IC50 [µM]
67 | Cc1cccc(N=C2NC(=O)C(CC(=O)Nc3cccc(C)c3C)S2)c1 (stereo unspecified) |  | > 70.8 | > 70.8
68 | O=c1c2ccc(Cl)cc2oc2ccc(Cl)cc12 |  | > 26.9 | > 26.9
69 | CCOC(=O)c1c2ccc(/C=C/C(=O)OC)ccc-2c(C(=O)OCC)c1N |  | > 19.5 | > 19.5
70 | COC1OOC(OC)c2ccccc2-c2ccccc21 (stereo unspecified) |  | > 200 | 12.3
71 | CC(=O)OCCCOCn1c(Cc2ccccc2)c(C)c(=O)[nH]c1=O |  | 100 | > 200
72 | CC(C)=CCC[C@@H](C)C1=C(O)C(Nc2ccccc2Cl)=C(C)C(=O)C1=O |  | > 200 | 6.31
73 | OC(C1CCCCCCCCCC1)C(O)C1CCCCCCCCCC1 (stereo unspecified) |  | > 200 | > 200
74 | N#CC(=N)c1ncn(-c2ccc(N)cc2)c1N |  | > 200 | 195
75 | Cc1csc2nc(-c3ccco3)nn12 |  | > 200 | > 200
76 | CCOC(=O)/C(CCCC#N)=N/O |  | > 200 | > 200
77 | CCCNC(=S)NNC(=O)CSc1nc(-c2ccccc2)c(-c2ccccc2)[nH]1 |  | > 117 | 57.5
78 | CC(C)OC(=O)c1ccc(CCC2=CC(=O)C=CC2=O)cc1 |  | > 200 | 8.32
79 | CCOC(=O)c1c(NS(=O)(=O)c2ccc(C)cc2)sc(C)c1C |  | > 200 | 33.9
80 | Cn1cnc([N+](=O)[O-])c1Sc1nnnn1C |  | > 1020 | 5.5
81 | Cc1cccc(/C=N/NC(=S)N2CCCC2)n1 |  | > 100 | 0.115
82 | CCN(CC)CCNc1ccc(CO)c2oc3ccccc3c(=O)c12 |  | > 363 | 2.4
83 | O=C1O[C@H](C(Cl)(Cl)Cl)N2CCCC12 (stereo partly specified) |  | > 204 | > 204
84 | CC(C)=CCC/C(C)=C/Cc1cc2ccc(=O)oc2cc1O |  | > 63.1 | 32.4
85 | C=C[C@@]1(O)CCCC2=C(C(=O)OCC)CC[C@]21C | inactive |  | 
86 | CCOC(=O)Nc1cc2c(c(N)n1)N=C(CN(C)c1ccccc1)CN2 |  | > 34.7 | 0.0741
87 | CN(C)Cc1cc(C(=O)/C=C/c2ccccc2Cl)cc(CN(C)C)c1O |  | > 200 | 7.24
88 | CC(C)CC(NC(=O)C(Cc1ccccc1)NC(=O)C1CCCN1C(=O)OCc1ccccc1)C(=O)OC(C)(C)C (stereo not drawn) (Cbz-Pro-Phe-Leu-OtBu; configuration not given here) |  | > 6.61 | > 6.61
